Source: patent US20070010670A1, “Nitrogen-containing fused ring compounds and use thereof” (Japan Tobacco Inc., priority 2004, published 2007)

These compounds were tested against T1, CYP2C9 (Homo sapiens, UniProt P11712) (assay: CYP inhibitory test using human liver microsome). Details: model substrate diclofenac, 37° C. 10 min, read-out: CYP2C9 inhibition IC50.
T1 construct: Human liver microsome (20 mg protein/mL, 5 μL, Xenotech LLC, purchased from Lenexa KS); tissue Xenotech LLC; host or cells: human liver microsome
Type: in vitro ADME
Procedure: Human liver microsome (20 mg protein/mL, 5 μL, Xenotech LLC, purchased from Lenexa KS) was suspended in 100 mM potassium phosphate buffer (70 μL, pH 7.4), mixed with a solution (0.5 μL) of the Example compound dissolved in DMSO and preincubated at 37° C. for 5 min. NADPH producing system coenzyme solution (β-nicotinamide adenine dinucleotide phosphate: 5.2 mM, D-glucose-6-phosphate: 13.2 mM, magnesium chloride: 13.2 mM, glucose-6-phosphate dehydrogenase: 1.8 U/mL) 25 μL, and a model substrate (CYP3A4: midazolam 1 mM, CYP2D6: bufuralol 1 mM, CYP2C9: diclofenac 2 mM) 0.5 μL dissolved in DMSO were added to start the reaction. After incubation at 37° C. for 10 min., acetonitrile (200 μL) containing an internal standard substance (propranolol 1 μM) was added and the mixture was centrifuged (room temperature, 3000 rpm, 20 min). The amount of the metabolite produced from each model substrate in the supernatant was measured by high performance liquid chromatography/mass spectrometry (LC/MS/MS) and each CYP enzyme activity was determined. The concentration showing 50% inhibition (IC50) was calculated relative to the enzyme activity without addition of Example compound (DMSO 0.5 μL added) as 100%.

T1 sequence (P11712 whole entry): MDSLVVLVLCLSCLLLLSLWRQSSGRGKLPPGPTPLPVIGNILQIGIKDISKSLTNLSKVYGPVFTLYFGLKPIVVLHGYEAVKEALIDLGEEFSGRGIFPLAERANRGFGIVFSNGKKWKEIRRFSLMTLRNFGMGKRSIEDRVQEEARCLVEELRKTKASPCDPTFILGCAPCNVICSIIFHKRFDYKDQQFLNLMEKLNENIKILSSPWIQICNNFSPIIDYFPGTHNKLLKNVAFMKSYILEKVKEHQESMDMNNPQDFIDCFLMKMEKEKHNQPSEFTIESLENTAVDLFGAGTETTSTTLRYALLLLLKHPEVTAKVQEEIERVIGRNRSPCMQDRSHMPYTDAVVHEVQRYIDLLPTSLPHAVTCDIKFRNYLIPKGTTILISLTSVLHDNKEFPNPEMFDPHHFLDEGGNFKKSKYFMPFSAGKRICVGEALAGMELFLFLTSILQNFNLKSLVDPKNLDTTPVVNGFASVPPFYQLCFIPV

Compound | IC50 [µM]
CN(C)S(=O)(=O)c1ccc2c(c1)N(C(=O)c1cc(Cl)c(O)c(Cl)c1)CCO2 [Example 35, 4-(3,5-dichloro-4-hydroxybenzoyl)-3,4-dihydro-2H-benzo[1,4]oxazine-6-sulfonic acid dimethylamide] | 14
O=C(c1cc(Cl)c(O)c(Cl)c1)N1CCOc2cccnc21 [Example 36, (3,5-dichloro-4-hydroxyphenyl)-(2,3-dihydropyrido[3,2-b][1,4]oxazin-4-yl)-methanone] | 16
O=C1CCN(C(=O)c2cc(Cl)c(O)c(Cl)c2)c2ccccc2N1 [Example 37, 5-(3,5-dichloro-4-hydroxybenzoyl)-1,3,4,5-tetrahydrobenzo[b][1,4]diazepin-2-one] | > 50
O=C(c1ccc(O)c(C(F)(F)F)c1)N1CCOc2ccccc21 [Example 39, (2,3-dihydrobenzo[1,4]oxazin-4-yl)-(4-hydroxy-3-trifluoromethylphenyl)-methanone] | 21
O=C(c1ccc([N+](=O)[O-])cc1)N1CCOc2ccccc21 [Example 43, (2,3-dihydrobenzo[1,4]oxazin-4-yl)-(4-nitrophenyl)-methanone] | > 50
O=C(c1cc(Cl)c(O)c(Cl)c1)N1CCOc2ccc(F)cc21 [Example 44, (3,5-dichloro-4-hydroxyphenyl)-(6-fluoro-2,3-dihydrobenzo[1,4]oxazin-4-yl)-methanone] | 31
O=C(O)c1ccccc1C(=O)N1CCOc2ccccc21 [Example 45, 2-(2,3-dihydrobenzo[1,4]oxazine-4-carbonyl)benzoic acid] | > 50
COC(=O)c1ccc(C(=O)N2CCOc3ccccc32)cc1 [Example 46, methyl 4-(2,3-dihydrobenzo[1,4]oxazine-4-carbonyl)benzoate] | > 50
O=C(O)c1ccc(C(=O)N2CCOc3ccccc32)cc1 [Example 47, 4-(2,3-dihydrobenzo[1,4]oxazine-4-carbonyl)benzoic acid] | > 50
COC(=O)c1cccc(C(=O)N2CCOc3ccccc32)c1 [Example 48, methyl 3-(2,3-dihydrobenzo[1,4]oxazine-4-carbonyl)benzoate] | > 50
O=C(O)c1cccc(C(=O)N2CCOc3ccccc32)c1 [Example 49, 3-(2,3-dihydrobenzo[1,4]oxazine-4-carbonyl)benzoic acid] | > 50

Other lines, results leading:

IC50 [µM] | Compound
5 | O=C(c1cc(Cl)cc(Cl)c1O)N1CCOc2ccccc21 [Example 38, (3,5-dichloro-2-hydroxyphenyl)-(2,3-dihydrobenzo[1,4]oxazin-4-yl)-methanone]
> 50 | COc1cc(C(=O)N2CCOc3ccccc32)cc(Cl)c1O [Example 40, (3-chloro-4-hydroxy-5-methoxyphenyl)-(2,3-dihydrobenzo[1,4]oxazin-4-yl)-methanone]
> 50 | O=C(c1ccc(Cl)c(O)c1)N1CCOc2ccccc21 [Example 41, (4-chloro-3-hydroxyphenyl)-(2,3-dihydrobenzo[1,4]oxazin-4-yl)-methanone]
> 50 | O=C(c1cc(Cl)nc(Cl)c1)N1CCOc2ccccc21 [Example 42, (2,6-dichloropyridin-4-yl)-(2,3-dihydrobenzo[1,4]oxazin-4-yl)-methanone]
15 | O=C(c1cc(Cl)c(O)c(Cl)c1O)N1CCOc2ccccc21 [Example 50, (3,5-dichloro-2,4-dihydroxyphenyl)-(2,3-dihydrobenzo[1,4]oxazin-4-yl)-methanone]
16 | O=C(c1cc(Cl)c(O)c(Cl)c1)N1CCOc2ccc(Cl)cc21 [Example 51, (6-chloro-2,3-dihydrobenzo[1,4]oxazin-4-yl)-(3,5-dichloro-4-hydroxyphenyl)-methanone]
11 | O=C(c1cc(Cl)c(O)c(Cl)c1)N1CCOc2cc(Cl)ccc21 [Example 52, (7-chloro-2,3-dihydrobenzo[1,4]oxazin-4-yl)-(3,5-dichloro-4-hydroxyphenyl)-methanone]
